These results are taken from paper PMC7199333, “Efficacy and safety of lanreotide autogel compared with lanreotide 40 mg prolonged release in Chinese patients with active acromegaly: results from a phase 3, prospective, randomized, and open-label study (LANTERN)” (BMC Endocrine Disorders, 2020).

Molecules are shown by their SMILES.

A short description of series [1]: Serum lanreotide pharmacokinetics (non-compartmental). It counts as in vivo, human. The settings on record: lanreotide autogel; fourth titrated dose 120 mg normalized to 90 mg vs first dose of 90 mg; PK subgroup. As for the experimental part:
Lanreotide autogel – pre-dose serum samples were taken at weeks 1, 13, 17, and 29; sampling around 4 h after treatment at weeks 13 and 17 and at the end of study (Week 33)/early withdrawal visit. For a subset of patients in the PK subgroup, additional samples were taken during the study and during the PK extension phase: after the first administration of 90 mg at Week 1 (1, 4, 6, 8, 12, 24, and 72 h), Week 2 (168 h), Week 3 (336 h), Week 4 (504 h) and prior to the next administration at Week 5 (672 h); after the fourth (last) administration of the titrated dose at Week 29 (1, 4, 6, 8, 12, 24, and 72 h), Week 30 (168 h), Week 31 (336 h), Week 32 (504 h), and at Week 37 (1344 h) and Week 41 (2016 h).
Lanreotide 40 mg PR – pre-dose serum samples were taken at weeks 1, 2, 13, 16, and at the end-of-study/early withdrawal visit (all taken shortly before treatment) for all patients.
PK endpoints included trough lanreotide concentrations (Ctrough i.e. observed serum concentration at the end of the dosing interval) prior to the fourth, fifth and eighth administrations and at the end-of-study treatment visit with lanreotide autogel, and prior to the second, tenth and twelfth administrations and at the end-of-study visit with lanreotide 40 mg PR. Following a similar approach as reported by Bronstein and colleagues, a non-compartmental PK analysis was performed for the lanreotide autogel PK subgroup to provide individual PK parameters over a 4-week dosing interval after the first and last administration of study drug (i.e. steady state): maximum plasma concentration (Cmax), time to maximum plasma concentration (tmax), area under the concentration–time curve over a 4-week dosing interval (AUCtau), Ctrough and elimination t½ [19].
Additional parameters were estimated, comparing lanreotide PK after Week 1 and Week 29 after normalization to a dose of 90 mg: accumulation ratio for Ctrough (Rtrough) = Ctrough,Week 29/Ctrough,Week 1; accumulation ratio for Cmax (Rmax) = Cmax,Week 29/Cmax,Week 1; accumulation ratio for AUCtau (RAUC) = AUCtau, Week 29/AUCtau, Week 1.

The conditions of series [2]: cited from earlier work. The text has this: Somatostatin analogs (SSAs) are the preferred type of medical therapy used to reduce GH secretion. Patients who have persistent disease following surgical resection are recommended treatment with the first-generation long acting SSAs, octreotide long-acting release (LAR) or lanreotide autogel. Lanreotide is a synthetic octapeptide analog of natural somatostatin with a longer half-life (t½) than the native molecule, and a selective somatostatin receptor subtype agonist with a high affinity for human somatostatin receptors 2 and 5 [5], which are commonly expressed at both the mRNA [6] ... || Steady-state PK was achieved after the administration of four lanreotide autogel doses. […] Similarly, Bronstein and colleagues reported a steady state Cmin (equivalent to Ctrough) of 3.76 ng/mL [19].

The subject of series [3] is human somatostatin receptor 5. Also on record: method as in PMID 7988476. As to conditions: selective somatostatin receptor subtype agonist; cited from earlier work.
Series [4] deals with human somatostatin receptor 2. Also noted: method as in PMID 7988476. The settings on record: selective somatostatin receptor subtype agonist; cited from earlier work.

Regarding `CC(C)[C@@H]1NC(=O)[C@H](CCCCN)NC(=O)[C@@H](Cc2c[nH]c3ccccc23)NC(=O)[C@H](Cc2ccc(O)cc2)NC(=O)[C@@H](NC(=O)[C@H](N)Cc2ccc3ccccc3c2)CSSC[C@@H](C(=O)N[C@H](C(N)=O)[C@@H](C)O)NC1=O` [lanreotide], in series [1], the “Mean RAUC (accumulation ratio for AUCtau, Week 29/Week 1)” value is reported as 2.33; the “Mean Rmax (accumulation ratio for Cmax, Week 29/Week 1)” value was 1.40; the “Mean Rtrough (accumulation ratio for Ctrough, Week 29/Week 1)” value amounted to 2.62. In addition, the “Half-life (t½) compared with the native molecule (natural somatostatin)” value in series [2] is recorded as “longer”. The “Affinity for human somatostatin receptor 5” value in series [3] was “high affinity”. In series [4], the “Affinity for human somatostatin receptor 2” value was “high affinity”.
